Measurements: patent EP0021207A1, “Alphacarbamoyl-pyrrolpropionitriles, process for their preparation and pharmaceutical preparations containing them” (priority 1979, dated 1981)

Tests used:
[1] = system: Adjuvansarthritis; assay: Adjuvant arthritis test in the rat; type: in vivo; conditions: po, Ratten, peroral, read-out: hoch aktiv bei peroralen Dosen bis hinunter zu
Source text: Die Verbindungen der Erfindung zeigen wertvolle pharmakologische Eigenschaften, in erster Linie antiinflammatorische und antiarthritische Wirkungen. Diese können in in-vitro oder in-vivo Versuchen nachgewiesen werden. In den letzteren werden vorzugsweise Säugetiere, z.B. Ratten, Katzen, Meerschweinchen oder Hunde als Testobjekte verwendet. Die Verbindungen der Erfindung können ihnen enteral, vorzugsweise oral, parenteral, z.B. subkutan oder intravenös, oder topisch, z.B. in Form von Lösungen in Wasser oder Oel, oder in Form von Stärke enthaltenden Suspensionen, verabreicht werden. Die verwendete Dosis kann in einem Bereich von ungefähr zwischen 0,1 und 100 mg/kg/Tag, vorzugsweise ungefähr 1 und 50 mg/kg/Tag, in erster Linie ungefähr 2 und. 25 mg/kg/Tag, liegen. Die für die genannten Wirkungen gewählten Tests sind entweder klassische Versuchsmethoden, z.B.der Carrageenin-Pfotenödem- oder der Adjuvansarthritis-Test in der Ratte, der Synoviitis-Versuch am Hund oder der Test, in welchem das durch ultraviolettes Licht hervorgerufene Erythem ausgewertet wird, oder moderne Testmethoden. Solche sind die neutrale Protease Hemmung [beschrieben in Arthritis Rheum. 17, 47 (1974)] oder die Hemmung der Leukozyten Chemotaxis [N.Y.Acad. Sci., 256, 177 (1975)]. […]

[2] = system: BCG-immunisierten Makrophagen; type: cell-based, Charles River-Ratten; conditions: in vitro, result in words

SMILES: Cn1cccc1C(=O)C(C#N)C(=O)Nc1ccccc1 (stereo not drawn) [1-Methyl-β-oxo-α-phenylcarbamoyl-2-pyrrol-propionitril]
- minimal effective dose [1]: ≥ 2 mg/kg/day

SMILES: COc1ccc2c(c1)c(CC(=O)O)c(C)n2C(=O)c1ccc(Cl)cc1 [Indomethacin]
- Einfluss auf die Makrophagen-Chemotaxis [2]: beeinflusst das Indomethacin die Makrophagen-Chemotaxis nicht
